# Laboratory results reported in patent US20120053211A1, “TREATMENT OF PANCREATIC CANCER” (ARDEA BIOSCIENCES, INC., priority 2009, published 2012).
# Where “and” joins values, the source holds several entries; their conditions need not be identical. Equal entries are not always repeated.
# Tested on: Bx-PC3-e242 Xenograft
# Assay: Bx-PC3-e242 Xenograft Study
# Assay type: in vivo, female (nu/nu) mice
# Design: key to Mean BW Nadir: — indicates no decrease in mean body weight was observed
# Conditions: for % TGI: D15, compared to Group 1; for % TGD: [(T − C)/C] × 100; for MTV (n) D54: day of TGD analysis, excludes animals reaching endpoint; for MTV (n) D15: day of TGI analysis, includes animals at endpoint; for T − C: difference of median TTE versus control group (Group 1); for Mean TTE / Median TTE: endpoint 1500 mm^3; for Individual TTE values: individual animals 1-9, endpoint 1500 mm^3, study duration 54 days; for Mean BW Nadir: lowest group mean body weight as % change from Day 1; for No. of NTR: non-treatment-related death; for No. of PR: partial regression, 9 animals
# Experimental: In vivo activity of compound B: Bx-PC3-e242 Xenograft Study Bx-PC3-e242 cells were injected into 11-week-old female (nu/nu) mice. Tumors were allowed to reach 115.5-116.7 mm^3 (group mean tumor range); 63-196 mm^3 (Individual Tumor Range) in size (23 days) and mice were randomized into 6 groups of 9 animals (body weight range 18.0-25.2 g). Mice were treated by according to the chart below:
# Tumors were measured with a caliper and tumor volumes calculated using the following formula:
# where w=width and l=length in mm of a tumor. Tumor weight is estimated with the assumption that 1 mg is equivalent to 1 mm^3 of tumor volume.
# Each animal was euthanized when the tumor reached endpoint size or at the end of the study, whichever comes first. The time to endpoint (TTE) for each mouse is calculated according to the following equation
# The study endpoint was 1500 mm^3, with a study duration of 54 days.
# Treatment may cause partial regression (PR) or complete regression (CR) of the tumor in an animal. In a PR response, the tumor volume is 50% or less of its Day 1 volume for three consecutive measurements during the course of the study.
# Treatment outcome is evaluated by tumor growth delay (TGD), defined as the increase in the median time to endpoint (TTE) in a treatment group compared to the control group:
# Response to treatment was also evaluated for tumor growth inhibition (TGI), defined as the difference between the median tumor volumes (MTVs) of treated and control mice.
# Animals were weighed daily for the first five days of the study and then twice weekly. The mice are observed frequently for overt signs of any adverse, treatment-related side effects, and clinical signs of toxicity were recorded when observed.
# [1] = Group 3: Cmpd B 25 mg/kg po qd × 14
# [2] = Group 4: Cmpd B 6.25 mg/kg po bid × 14 first day 1 dose
# [3] = Group 6: Cmpd B 12.5 mg/kg po, then 6.25 mg/kg po bid × 11 first day 1 dose (start on day 4)
compound,measurement,setting,value
"Cc1c(Nc2ccc(I)cc2F)c(NS(=O)(=O)C2CC2)cn(C)c1=O [Compound B, N-(4-(2-fluoro-4-iodophenylamino)-1,5-dimethyl-6-oxo-1,6-dihydropyridin-3-yl)cyclopropanesulfonamide]",Weekly Median Tumor Volume (number of animals in parentheses),"D1, Group 3: Cmpd B 25 mg/kg po qd × 14",108 (9) mm^3
same,Weekly Median Tumor Volume (number of animals in parentheses),"D1, Group 4: Cmpd B 6.25 mg/kg po bid × 14 first day 1 dose",108 (9) mm^3
same,Weekly Median Tumor Volume (number of animals in parentheses),"D1, Group 5: Cmpd B 9 mg/kg po",108 (9) mm^3
same,Weekly Median Tumor Volume (number of animals in parentheses),"D1, Group 6: Cmpd B 12.5 mg/kg po, then 6.25 mg/kg po bid × 11 first day 1 dose (start on day 4)",75 (9) mm^3
same,Weekly Median Tumor Volume (number of animals in parentheses),"D5, Group 3: Cmpd B 25 mg/kg po qd × 14",75 (9) mm^3
same,Weekly Median Tumor Volume (number of animals in parentheses),"D5, Group 4: Cmpd B 6.25 mg/kg po bid × 14 first day 1 dose",75 (9) mm^3
same,Weekly Median Tumor Volume (number of animals in parentheses),"D5, Group 5: Cmpd B 9 mg/kg po",63 (9) mm^3
same,Weekly Median Tumor Volume (number of animals in parentheses),"D5, Group 6: Cmpd B 12.5 mg/kg po, then 6.25 mg/kg po bid × 11 first day 1 dose (start on day 4)",75 (9) mm^3
same,Weekly Median Tumor Volume (number of animals in parentheses),"D10, Group 3: Cmpd B 25 mg/kg po qd × 14",196 (9) mm^3
same,Weekly Median Tumor Volume (number of animals in parentheses),"D10, Group 4: Cmpd B 6.25 mg/kg po bid × 14 first day 1 dose",196 (9) mm^3
same,Weekly Median Tumor Volume (number of animals in parentheses),"D10, Group 5: Cmpd B 9 mg/kg po",172 (9) mm^3
same,Weekly Median Tumor Volume (number of animals in parentheses),"D10, Group 6: Cmpd B 12.5 mg/kg po, then 6.25 mg/kg po bid × 11 first day 1 dose (start on day 4)",259 (9) mm^3
same,% TGI,[1],82%
same,% TGI,[2],89%
same,% TGI,Group 5: Cmpd B 9 mg/kg po,89%
same,% TGI,[3],84%
same,Weekly Median Tumor Volume (number of animals in parentheses),"D15, Group 3: Cmpd B 25 mg/kg po qd × 14",196 (9) mm^3
same,Weekly Median Tumor Volume (number of animals in parentheses),"D15, Group 4: Cmpd B 6.25 mg/kg po bid × 14 first day 1 dose",126 (9) mm^3
same,Weekly Median Tumor Volume (number of animals in parentheses),"D15, Group 5: Cmpd B 9 mg/kg po",126 (9) mm^3
same,Weekly Median Tumor Volume (number of animals in parentheses),"D15, Group 6: Cmpd B 12.5 mg/kg po, then 6.25 mg/kg po bid × 11 first day 1 dose (start on day 4)",172 (9) mm^3
same,Weekly Median Tumor Volume (number of animals in parentheses),"D22, Group 3: Cmpd B 25 mg/kg po qd × 14",446 (9) mm^3
same,Weekly Median Tumor Volume (number of animals in parentheses),"D22, Group 4: Cmpd B 6.25 mg/kg po bid × 14 first day 1 dose",288 (9) mm^3
same,Weekly Median Tumor Volume (number of animals in parentheses),"D22, Group 5: Cmpd B 9 mg/kg po",288 (9) mm^3
same,Weekly Median Tumor Volume (number of animals in parentheses),"D22, Group 6: Cmpd B 12.5 mg/kg po, then 6.25 mg/kg po bid × 11 first day 1 dose (start on day 4)",550 (9) mm^3
same,Weekly Median Tumor Volume (number of animals in parentheses),"D29, Group 3: Cmpd B 25 mg/kg po qd × 14",864 (5) mm^3
same,Weekly Median Tumor Volume (number of animals in parentheses),"D29, Group 4: Cmpd B 6.25 mg/kg po bid × 14 first day 1 dose",509 (8) mm^3
same,Weekly Median Tumor Volume (number of animals in parentheses),"D29, Group 5: Cmpd B 9 mg/kg po",566 (8) mm^3
same,Weekly Median Tumor Volume (number of animals in parentheses),"D29, Group 6: Cmpd B 12.5 mg/kg po, then 6.25 mg/kg po bid × 11 first day 1 dose (start on day 4)",1008 (9) mm^3
same,Weekly Median Tumor Volume (number of animals in parentheses),"D36, Group 3: Cmpd B 25 mg/kg po qd × 14",867 (4) mm^3
same,Weekly Median Tumor Volume (number of animals in parentheses),"D36, Group 4: Cmpd B 6.25 mg/kg po bid × 14 first day 1 dose",600 (6) mm^3
same,Weekly Median Tumor Volume (number of animals in parentheses),"D36, Group 5: Cmpd B 9 mg/kg po",600 (5) mm^3
same,Weekly Median Tumor Volume (number of animals in parentheses),"D36, Group 6: Cmpd B 12.5 mg/kg po, then 6.25 mg/kg po bid × 11 first day 1 dose (start on day 4)",900 (2) mm^3
same,Weekly Median Tumor Volume (number of animals in parentheses),"D43, Group 3: Cmpd B 25 mg/kg po qd × 14",1015 (2) mm^3
same,Weekly Median Tumor Volume (number of animals in parentheses),"D43, Group 4: Cmpd B 6.25 mg/kg po bid × 14 first day 1 dose",1268 (3) mm^3
same,Weekly Median Tumor Volume (number of animals in parentheses),"D43, Group 5: Cmpd B 9 mg/kg po",1008 (1) mm^3
same,Weekly Median Tumor Volume (number of animals in parentheses),"D43, Group 6: Cmpd B 12.5 mg/kg po, then 6.25 mg/kg po bid × 11 first day 1 dose (start on day 4)",1470 (1) mm^3
same,Weekly Median Tumor Volume (number of animals in parentheses),"D50, Group 3: Cmpd B 25 mg/kg po qd × 14",1327 (2) mm^3
same,Weekly Median Tumor Volume (number of animals in parentheses),"D50, Group 4: Cmpd B 6.25 mg/kg po bid × 14 first day 1 dose",976 (2) mm^3
same,Weekly Median Tumor Volume (number of animals in parentheses),"D50, Group 5: Cmpd B 9 mg/kg po",1470 (1) mm^3
same,% TGD,[1],62%
same,% TGD,[2],91%
same,% TGD,Group 5: Cmpd B 9 mg/kg po,94%
same,% TGD,[3],69%
same,MTV (n) D54,[1],1470 (1) mm^3
same,MTV (n) D54,[2],486 (1) mm^3
same,MTV (n) D15,[1],196 (9) mm^3
same,MTV (n) D15,[2],126 (9) mm^3
same,MTV (n) D15,Group 5: Cmpd B 9 mg/kg po,126 (9) mm^3
same,MTV (n) D15,[3],172 (9) mm^3
same,T − C,[1],12.1 days
same,T − C,[2],17.8 days
same,T − C,Group 5: Cmpd B 9 mg/kg po,18.3 days
same,T − C,[3],13.4 days
same,Mean TTE,[1],35.4 days
same,Median TTE,[1],31.6 days
same,Mean TTE,[2],40.7 days
same,Median TTE,[2],37.3 days
same,Mean TTE,Group 5: Cmpd B 9 mg/kg po,37.8 days
same,Median TTE,Group 5: Cmpd B 9 mg/kg po,37.8 days
same,Mean TTE,[3],34.9 days
same,Median TTE,[3],32.9 days
same,Individual TTE values,"* = non-treatment-related death, Group 4: Cmpd B 6.25 mg/kg po bid × 14 first day 1 dose",54.0 days and 51.4 days and 50.0 days and 35.1 days and 36.9 days and *40.0 days and 29.0 days and 37.7 days and 31.5 days
same,Individual TTE values,[1],23.4 days and 28.3 days and 54.0 days and 50.1 days and 26.5 days and 31.6 days and 38.2 days and 40.2 days and 26.8 days
same,Individual TTE values,Group 5: Cmpd B 9 mg/kg po,31.8 days and 42.8 days (2×) and 33.8 days and 41.7 days and 50.3 days and 30.5 days and 28.2 days and 37.8 days
same,Individual TTE values,[3],32.9 days and 45.6 days and 35.7 days and 29.7 days and 33.3 days and 41.0 days and 31.1 days and 31.8 days and 32.8 days
same,Mean BW Nadir,[1],—
same,Mean BW Nadir,[2],—
same,Mean BW Nadir,Group 5: Cmpd B 9 mg/kg po,—
same,Mean BW Nadir,[3],—
same,Mean TV(n),"n = 1, Group 5: Cmpd B 9 mg/kg po",1913 mm^3
same,Mean TV(n),"n = 2, Group 3: Cmpd B 25 mg/kg po qd × 14",1635 mm^3
same,Mean TV(n),"n = 2, Group 4: Cmpd B 6.25 mg/kg po bid × 14 first day 1 dose",1076 mm^3
same,No. of NTR,[1],0
same,No. of NTR,[2],1
same,No. of NTR,Group 5: Cmpd B 9 mg/kg po,0
same,No. of NTR,[3],0
same,No. of PR,[1],0
same,No. of PR,[2],0
same,No. of PR,Group 5: Cmpd B 9 mg/kg po,0
same,No. of PR,[3],0
